Source: the NIST ThermoML archive (doi:10.1016/j.jct.2015.11.006)
Numbers after ± are expanded uncertainties.

Test: refractive index (Na D-line) (dimensionless)
Conditions: 298.15 K; 101.33 kPa; Liquid; Standard Abbe refractometry

Compound | refractive index
CCO [ethanol] | 1.3591 ± 0.0005
CC(C)O [propan-2-ol] | 1.3756 ± 0.0005
O [water] | 1.3326 ± 0.0005
